In ChEMBL document CHEMBL1128005, “Piperidine-ether based hNK1 antagonists 1: Determination of the relative and absolute stereochemical requirements” (Bioorg Med Chem Lett, 1994):

Target: Substance-P receptor (Homo sapiens, UniProt P25103)
Experiment: Compound was tested for the displacement of […] Substance P from hNK1 receptor in CHO cells
Format: cell-based

Chain of Substance-P receptor (P25103 whole entry): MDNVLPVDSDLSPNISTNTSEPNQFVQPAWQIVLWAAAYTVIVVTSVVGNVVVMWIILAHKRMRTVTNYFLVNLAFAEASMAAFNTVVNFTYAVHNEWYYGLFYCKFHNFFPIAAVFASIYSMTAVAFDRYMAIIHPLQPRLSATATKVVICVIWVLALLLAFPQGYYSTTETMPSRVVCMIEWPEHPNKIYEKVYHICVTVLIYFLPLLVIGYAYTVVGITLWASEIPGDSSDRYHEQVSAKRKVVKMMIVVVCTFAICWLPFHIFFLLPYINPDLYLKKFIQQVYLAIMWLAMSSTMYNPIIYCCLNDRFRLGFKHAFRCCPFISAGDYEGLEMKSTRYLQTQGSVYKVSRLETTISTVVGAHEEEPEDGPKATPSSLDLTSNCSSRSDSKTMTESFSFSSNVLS

| Structure (SMILES) | IC50 |
| --- | --- |
| FC(F)(F)c1cc(CO[C@H]2CCCN[C@@H]2c2ccccc2)cc(C(F)(F)F)c1 | 300 nM |
| FC(F)(F)c1cc(CO[C@H]2CCN[C@H]2c2ccccc2)cc(C(F)(F)F)c1 (racemic) | 7 nM |
| FC(F)(F)c1cc(CO[C@@H]2CCCN[C@@H]2c2ccccc2)cc(C(F)(F)F)c1 (stereo in doubt) | 350 nM |
| FC(F)(F)c1cc(CO[C@@H]2CCCN[C@@H]2c2ccccc2)cc(C(F)(F)F)c1 (stereo in doubt; (+/-)2) | 1.4 nM |
